Assay results as given in US20180078615A1, “USE OF CCL2 TO INHIBIT ABNORMAL UTERINE BLEEDING” (UNIVERSITY OF SOUTH FLORIDA, priority 2015, published 2018).

Experiments:
Type in all cases: cell-based, human
VSMCs [1] = assay: Whole genome microarray analysis (Illumina HumanHT-12 v4) of cultured VSMCs treated with progestins; conditions: VSMCs treated by ETO
Text: Cultured VSMCs (n=3) treated with control medium or medium containing medroxyprogesterone acetate (MPA, 10^−7 M), or etonogestrel (ETO, 10^−7 M) were processed for whole genome analyses using Illumina Human microarray kit. After qRT-PCR confirmation of several up and down regulated genes from microarray data, Ingenuity Pathway Analysis (IPA) determined relevant upstream signaling of LAPC altered gene expression. To investigate the role of genes and relevant signaling molecules identified by IPA, VSMCs (n=3) treated with MPA or ETO±1 or 10 ng/ml recombinant CCL2 (rCCL2)±STAT1 inhibitor, 5′-methyl-thioadenosine (MTA, 100 μM) were analyzed by BrdU incorporation proliferation, TUNEL based ELISA apoptosis and Transwell insert migration assays.
(§1) VSMCs were thawed and cultured in medium 231 (M231; Life Technologies) with smooth muscle growth supplement (5% FBS; 2 ng/mL human basic fibroblast growth factor, 0.5 ng/mL human epidermal growth factor, 5 ng/mL heparin, 0.2 μg/mL insulin and 5 μg/mL BSA; Life Technologies) with 100 U/mL penicillin, 100 μg/mL streptomycin, 0.25 μg/mL fungizone. Confluent VSMCs were washed twice with 1×PBS to remove residual serum, passaged in 96-well or 6-well plates and incubated in parallel in M231 with 1% charcoal striped FBS with 0.1% ethanol (vehicle, control) or 10^−7 M MPA (Sigma-Aldrich) or 10^−7 M ETO (Organon) or 10^−7 M P4 (Sigma-Aldrich) for 15 min, 6, 48, and 72 h. VSMCs were then washed with ice-cold PBS and stored at −80° C. for further RNA and protein analyses.
Total RNA was isolated using Qiagen miRNeasy Mini Kit (Qiagen) and RNeasy MinElute Cleanup Kit (Qiagen). The quality of isolated RNAs was confirmed using an Agilent 2100 Bioanalyzer. Microarray analysis was limited to those specimens in which RNA Integrity Number exceeded 8. Microarray processes were performed in the Keck Biotechnology Resource Laboratory at Yale University (New Haven, Conn.) using Illumina Human HT-12 v4 BeadChip (Illumina). Raw data without normalization were analyzed by GeneSpring GX12.5 software (Agilent Technologies-Silicon Genetics). Normalization was performed as described (35). Genes with a fold-change >1.25 and a P value<0.05 were considered differentially expressed. Ingenuity Pathway Analysis (IPA) software (Qiagen) explored molecular and biological networks related to differentially expressed genes.

VSMCs [2] = assay: VSMC proliferation assay by BrdU incorporation; conditions: 10^−7 M, 48-h treatment, mean±SEM; control 0.81±0.03
Experimental: VSMCs were grown in 96-well plates or 8-well chamber slides and incubated with 10^−7 M of MPA (Sigma-Aldrich) or ETO (Organon) or P4 (Sigma-Aldrich) or vehicle±rCCL2 (R&D Systems)±STAT1 inhibitor, 5′-methyl-thioadenosine (MTA; EMD Millipore) (19) for 48 or 72 h. VSMCs were then analyzed for apoptosis by an ELISA based apoptosis kit (Roche) or cleaved-caspase 3 immunostaining. VSMC proliferation was measured by BrdU incorporation Kit (Cell Signaling). (See further details in SI Materials and Methods).
VSMCs were thawed and cultured in T-75 cell culture flasks in medium 231 (M231; Life Technologies) with smooth muscle growth supplement (5% FBS; 2 ng/mL human basic fibroblast growth factor, 0.5 ng/mL human epidermal growth factor, 5 ng/mL heparin, 0.2 μg/mL insulin and 5 μg/mL BSA; Life Technologies) with 100 U/mL penicillin, 100 μg/mL streptomycin, and 0.25 μg/mL fungizone. Confluent VSMCs were washed twice with 1×PBS to remove residual serum, and then passaged (5,000 cells per well) in 96-well plates and incubated in parallel in M231 with 1% charcoal striped FBS with 0.1% ethanol (vehicle, control), 10^−7 M MPA (Sigma-Aldrich), 10^−7 M ETO (Organon), or 10^−7 M P4 (Sigma-Aldrich)±rCCL2 (monocyte chemotactic protein-1; R&D Systems)±STAT1 inhibitor, 5′-methyl-thioadenosine (MTA; EMD Millipore) for 48 or 72 h.
BrdU (Cell Signaling) 1× in 100-μL M231 was added to each well during the final 24 h of incubation. At the end of 48- or 72-h incubation period, medium was removed and the wells washed twice with ice-cold PBS. VSMC proliferation was measured using BrdU cell proliferation Kit (Cell Signaling) at room temperature. Cells was incubated in 100 μL per well of the fixing/denaturing solution for 30 min, and then replaced by 100 μL per well BrdU detection antibody solution for 1 h. Following three rinses with wash buffer, plates were incubated in HRP-conjugated secondary antibody (100 μL per well) for 30 min. After three additional rinses with wash buffer, tetramethylbenzidine substrate solution (100 μL per well) was added for 20 min and the reaction stopped by adding 100 μL per well STOP solution. Absorbance was measured at 450 nm using Spectra Max190 microplate reader (Molecular Devices) to detect BrdU incorporation in each well.

STAT1 = assay: Western blot of total and phosphorylated STAT1 in VSMCs; conditions: VSMCs treated for 15 min, vs control
Experimental: as §1
To confirm inhibition of STAT1 signaling in LAPC-treated VSMCs, detected by IPA, cell lysates from VSMCs were run in 10% Tris-HCl gel (Bio-Rad). Transfer onto membrane, blocking, washing, chemiluminescence development, and stripping/reprobing were performed as described previously (35). The membrane was incubated with antitotal STAT1 or antiphospho-STAT1 rabbit monoclonal antibodies (Cell Signaling) and then with peroxidase-conjugated goat anti-rabbit IgG (Vector Labs). Signals were developed by a chemiluminescence kit (GE Healthcare).

## C#C[C@]1(O)CC[C@H]2[C@@H]3CCC4=CC(=O)CC[C@@H]4[C@H]3C(=C)C[C@@]21CC [ETO, etonogestrel]
VSMCs [1]
  Fold-change, ABI gene family, member 3 (NESH) binding protein (ABI3BP): −1.636
  Fold-change, Actin, γ 2, smooth muscle, enteric (ACTG2): 1.514
  Fold-change, Alcohol dehydrogenase 1A (class I), alpha polypeptide (ADH1A): 1.54
  Fold-change, Bone morphogenetic protein 6 (BMP6): 1.467
  Fold-change, Chemokine (C-C motif) ligand 2 (CCL2): −2.211
  Fold-change, Claudin 11 (oligodendrocyte transmembrane protein) (CLDN11): −1.544
  Fold-change, Collagen, type VIII, α 1, transcript variant 2 (COL8A1): 1.44
  Fold-change, Complement factor B (CFB): −1.835
  Fold-change, Cysteine-rich secretory protein LCCL domain containing 2, (CRISPLD2): 1.661
  Fold-change, DNA-damage regulated autophagy modulator 1 (DRAM1): −1.535
  Fold-change, Decorin, transcript variant A2, (DCN): 1.762
  Fold-change, EF-hand domain family, member D1 (EFHD1): 1.471
  Fold-change, Endoglin (Osler-Rendu-Weber syndrome 1) (ENG): −1.428
  Fold-change, Filaggrin (FLG): −1.59
  Fold-change, Growth arrest-specific 6 (GAS6): 1.4661
  Fold-change, H19, imprinted maternally expressed transcript noncoding RNA (H19): 2.497
  Fold-change, Hypothetical protein FLJ40504 (FLJ40504): −1.625
  Fold-change, Indolethylamine N-methyltransferase (INMT): 1.443
  Fold-change, Intelectin 2 (ITLN2): 1.655
  Fold-change, LY6/PLAUR domain containing 1, transcript variant 1 (LYPD1): −1.447
  Fold-change, Latexin (LXN): −1.779
  Fold-change, Leptin (obesity homolog, mouse) (LEP): 1.602
  Fold-change, Mitogen-activated protein kinase kinase 2 (MAP2K2): −1.437
  Fold-change, PREDICTED: miscRNA (LOC399965): −1.534
  Fold-change, PREDICTED: similar to LYPDC1 protein (LOC100134073): −1.536
  Fold-change, PREDICTED: similar to filaggrin (LOC730833): −1.474
  Fold-change, Pleckstrin homology-like domain, family A, member 1 (PHLDA1): −1.487
  Fold-change, Potassium voltage-gated channel, shaker-related subfamily, 0 member 1, transcript variant2 (KCNAB1): −1.492
  Fold-change, Prostaglandin-endoperoxide synthase 1, transcript variant 2 (PTGS1): 1.555
  Fold-change, RAB11 family interacting protein 1 (class I), transcript variant 3, (RAB11FIP1): 1.55
  Fold-change, Retinoic acid receptor responder (tazarotene induced) 1, transcript variant 1, (RARRES1): −2.146
  Fold-change, Retinoic acid receptor responder (tazarotene induced) 1, transcript variant 2, (RARRES1): −1.809
  Fold-change, Superoxide dismutase 2, mitochondrial, transcript variant 2, (SOD2): −1.778
  Fold-change, Thioredoxin domain containing 5, transcript variant 2 (TXNDC5): 1.429
  Fold-change, Transmembrane 4 L six family member 1 (TM4SF1): −1.467
  Fold-change, Transmembrane protein 119 (TMEM119): 1.448
  Fold-change, Wingless-type MMTV integration site family, member 5A (WNT5A): 1.504
  Fold-change, cDNA FLJ20769 fis, clone COL06674 (PREDICTED: Receptor tyrosine kinase-like orphan receptor 1): 1.528
VSMCs [1]; table entry 6
  Fold-change, Matrix Gla protein (MGP): 1.581
VSMCs [1]; table entry 8
  Fold-change, Matrix Gla protein (MGP): 1.554
VSMCs [2]
  BrdU incorporation: 0.40±0.03
STAT1
  phosphorylated levels of STAT1: partially reduced
  total STAT1 levels: not
